Measured values published in patent US20110143948A1, “MOLECULAR SIGNATURES AND BIOMARKERS ASSOCIATED WITH MELANOMA AND METHODS OF USE THEREOF” (priority 2008, published 2011).

Tested on: ncRNAs (SEQ ID NO 28-89)
Experiment: ncRNA arrays of melanocytes, keratinocytes, normal skin, melanoma cell lines and patient samples
Parameters: species or system human
Conditions: for ncRNA array expression, patient 2: melanoma patient 2 sample compared to normal skin; for ncRNA array expression, patient 3: melanoma patient 3 sample compared to normal skin; for ncRNA array expression, patient 4: melanoma patient 4 sample compared to normal skin; for ncRNA array expression, patient 5: melanoma patient 5 sample compared to normal skin; for ncRNA array expression, patient 6: melanoma patient 6 sample compared to normal skin; for ncRNA array expression, patient 7: melanoma patient 7 sample compared to normal skin; for ncRNA array expression, patient 8: melanoma patient 8 sample compared to normal skin; for ncRNA array expression, patient 9: melanoma patient 9 sample compared to normal skin; for ncRNA array expression, patient 10: melanoma patient 10 sample compared to normal skin; for ncRNA array expression, patient 19: melanoma patient 19 sample compared to normal skin; for ncRNA array expression, patient 20: melanoma patient 20 sample compared to normal skin; for ncRNA array expression, patient 21: melanoma patient 21 sample compared to normal skin; for ncRNA array expression, patient 22: melanoma patient 22 sample compared to normal skin; for ncRNA array expression, patient 23: melanoma patient 23 sample compared to normal skin; for ncRNA array expression, patient 24: melanoma patient 24 sample compared to normal skin; for ncRNA array expression, patient 25: melanoma patient 25 sample compared to normal skin; for ncRNA array expression, patient 26: melanoma patient 26 sample compared to normal skin; for ncRNA array expression, patient 27: melanoma patient 27 sample compared to normal skin; for ncRNA array expression, patient 28: melanoma patient 28 sample compared to normal skin; for ncRNA array expression, patient 29: melanoma patient 29 sample compared to normal skin; for ncRNA array expression, patient 30: melanoma patient 30 sample compared to normal skin
How it was run: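 Differential ncRNA expression was defined against melanocytes or normal skin after subtracting keratinocyte-specific signals, with confirmation by qRT-PCR and Northern blot. Samples were melanoma cell lines, patient tumours, melanocytes, keratinocytes and normal skin, hybridised to a >10,000-probe (>200 nt) ncRNA array that also carries RefSeq mRNA probes.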

| Substance | ncRNA array expression, patient 2 | ncRNA array expression, patient 3 | ncRNA array expression, patient 4 | ncRNA array expression, patient 5 | ncRNA array expression, patient 6 | ncRNA array expression, patient 7 | ncRNA array expression, patient 8 | ncRNA array expression, patient 9 | ncRNA array expression, patient 10 | ncRNA array expression, patient 19 | ncRNA array expression, patient 20 | ncRNA array expression, patient 21 | ncRNA array expression, patient 22 | ncRNA array expression, patient 23 | ncRNA array expression, patient 24 | ncRNA array expression, patient 25 | ncRNA array expression, patient 26 | ncRNA array expression, patient 27 | ncRNA array expression, patient 28 | ncRNA array expression, patient 29 | further results |
| --- | --- | --- | --- | --- | --- | --- | --- | --- | --- | --- | --- | --- | --- | --- | --- | --- | --- | --- | --- | --- | --- |
| SEQ ID NO 62 (AATCGTTAATATCATTGATATTAAGTAATTTCCCCACTCTGAGTGAATACTTTGATGATG; listed as DNA, chemistry not given here; listed as Homo sapiens) | 1.565 | 1.466 | 3.47 | 1.994 | 0.5751 | 2.152 | 0.2609 | 0.5801 | 1.264 | 1.414 | 1.836 | 0.6984 | 0.4968 | −0.5784 | 3.5 | 3.363 | 2.394 | 1.855 | 1.418 | 1.3702 | ncRNA array expression, patient 30: −1.545 |
| SEQ ID NO 86 (AAAATTATTTTATCTTAAGTTTCCATTTAGTTGATTAAAAATAGGGTTATGAATGTTAAA; listed as DNA, chemistry not given here; listed as Homo sapiens) | 2.021 | 1.628 | 5.076 | −0.09781 | −0.05485 | −0.1079 | 0.751 | 0.02401 | 1.097 | 1.409 | 0.8906 | 1.056 | −0.01773 | −0.00853 | 2.72 | 3.621 | 3.088 | 5.119 | −0.07222 | −0.07156 | ncRNA array expression, patient 30: 1.029 |
| SEQ ID NO 38 (GTAAACAAGGTCTCACAAAAACAGCTGACCACACCATAAAATCACTGAGACCGAGCCTGC; listed as DNA, chemistry not given here; listed as Homo sapiens) | −1.1813 | −1.02 | −0.9275 | −1.288 | −1.615 | −1.64 | −1.244 | −1.183 | −0.784 | −0.7729 | −0.9285 | −1.068 | −0.7593 | −1.569 | −1.078 | −1.365 | −1.368 | −1.317 | −1.181 | −1.249 | ncRNA array expression, patient 30: 0.333 |
| SEQ ID NO 84 (TTATTAAAAGGACTGAGGATCATGTGTGTTGGTGTGTCCCGGAGTCTGCTCTAAGGTAAA; listed as DNA, chemistry not given here; listed as Homo sapiens) | 1.997 | 1.789 | 1.046 | 0.9959 | 0.3741 | 2.005 | 1.104 | 1.55 | 0.2561 | 1.044 | 1.668 | 1.56 | 2.01 | 2.078 | 1.532 | 1.329 | 1.373 | 1.88 | 1.062 | 1.558 | ncRNA array expression, patient 30: 1.105 |
| SEQ ID NO 57 (TTGTTGTTTTGGGAGATACCCTGTTTAGCCTGAAAGGATTGAGATACTGTAATTGCTATG; listed as DNA, chemistry not given here; listed as Homo sapiens) | 1.808 | 2.081 | 1.613 | 2.211 | 1.68 | 0.6099 | 1.985 | 0.645 | 0.5023 | 0.2628 | 0.1922 | 0.9386 | 1.473 | 1.122 | 0.5436 | 1.559 | 1.989 | 1.446 | 1.064 | 0.4459 | ncRNA array expression, patient 30: −0.5305 |
| SEQ ID NO 52 (TTTTCTTAGTCTTTTTACTTTTTCCATTATATTCTTTGATATATTTGAGAAAATGGCTTG; listed as DNA, chemistry not given here; listed as Homo sapiens) | 2.853 | 1.986 | 3.663 | 1.552 | 0.7809 | 0.9779 | 2.426 | 0.8678 | 0.7332 | 0.9835 | −0.5729 | 0.7286 | −0.2277 | −0.706 | −0.4016 | 3.265 | 3.428 | 0.4479 | 2.064 | 1.478 | ncRNA array expression, patient 30: −0.5811 |
| SEQ ID NO 76 (TGTTTCTAATGCATACTGTGAAAGGAAAAAAAATCACAGTTATCCACCTTCTCAGGGCCT; listed as DNA, chemistry not given here; listed as Homo sapiens) | −1.682 | −1.051 | −1.297 | −1.036 | 0.3953 | −1.741 | −1.681 | −1.284 | −0.6169 | −0.775 | −1.184 | −1.216 | −0.05441 | 0.7328 | −1.262 | −1.549 | −1.597 | −1.555 | −1.598 | −1.765 | ncRNA array expression, patient 30: 0.4068 |
| SEQ ID NO 39 (TGATCCTGTAAATCATGTTTTTGTTTATTCCCCAACACTAACCTCACTCCTTTACTATTC; listed as DNA, chemistry not given here; listed as Homo sapiens) | −1.04 | −0.7852 | −1.149 | −1.017 | −0.9404 | −1.086 | −0.9282 | −1.306 | −1.237 | −0.6006 | −1.263 | −1.232 | −0.301 | −0.164 | −1.204 | −1.66 | −1.776 | −1.287 | −1.448 | −1.374 | ncRNA array expression, patient 30: 0.02356 |
